Among the data in PubChem BioAssay (NCI) are GI50 and TGI values, retold here.

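Step 1: Grow cells in 96-well plates. Step 2: Expose to compound for 48 hours at 5 concentrations. Step 3: Interpolate endpoints linearly; if unreached, use highest concentration. At the GI50, growth is halved. At the TGI there is no net growth.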 Some results are limits rather than exact numbers.

Some test systems named below: DU-145 prostate; IGROV1 ovarian; NCI-H226 lung; NCI/ADR-RES ovarian; RPMI-8226 leukemia; SK-OV-3 ovarian; T-47D breast; UO-31 renal; HL-60(TB) leukemia; SR leukemia.
What all share (assay): growth of human tumour cells (NCI), 48 h

Take `O=C(Nc1ccc(F)cc1F)c1cc(Cl)ccc1O`: the GI50 with DU-145 prostate was 3 µM; in the experiment on IGROV1 ovarian it was 1.49 µM; in the experiment on NCI-H226 lung, 1.29 µM; in the experiment with NCI/ADR-RES ovarian, 2.52 µM; with RPMI-8226 leukemia it was 0.689 µM; in the experiment on SK-OV-3 ovarian it was 0.722 µM. For the same compound, the GI50 is 0.473 µM in the experiment on T-47D breast and 1.15 µM in the experiment on UO-31 renal. Besides, the TGI with DU-145 prostate is 69.6 µM; in the experiment on IGROV1 ovarian, more than 100 µM; in the experiment on NCI-H226 lung it was 5.73 µM; in the experiment with NCI/ADR-RES ovarian it was 13.3 µM; with RPMI-8226 leukemia, 3.83 µM; with SK-OV-3 ovarian, 4.85 µM. Also, the TGI in the experiment with T-47D breast stood at 5.5 µM; in the experiment on UO-31 renal, 6.18 µM.
For the compound `O=C(/C=C/c1ccc(O)c(O)c1)NCc1c[nH]c2ccccc12`, the GI50 with DU-145 prostate was 78.3 µM; with HL-60(TB) leukemia, 70 µM; in the experiment on IGROV1 ovarian, 57.3 µM; with NCI-H226 lung, 71.3 µM; in the experiment on NCI/ADR-RES ovarian, more than 100 µM; in the experiment with RPMI-8226 leukemia, 57.9 µM. The GI50 with SR leukemia is 10 µM; in the experiment with T-47D breast, more than 100 µM; in the experiment with UO-31 renal it was 36.9 µM. The TGI in the experiment on DU-145 prostate, in the experiment on HL-60(TB) leukemia, in the experiment on IGROV1 ovarian, in the experiment on NCI-H226 lung, in the experiment on NCI/ADR-RES ovarian and with RPMI-8226 leukemia was more than 100 µM throughout. Also, the TGI in the experiment with SR leukemia was 37 µM; with T-47D breast, more than 100 µM; in the experiment on UO-31 renal it was more than 100 µM.
As to `C[Si](C)(c1ccc(C(=O)O)cc1)c1ccc(C(=O)O)cc1`, the TGI in the experiment with DU-145 prostate, in the experiment on IGROV1 ovarian, in the experiment with NCI-H226 lung, with NCI/ADR-RES ovarian, with RPMI-8226 leukemia and with SK-OV-3 ovarian was more than 100 µM throughout. Besides, the TGI in the experiment on SR leukemia and with T-47D breast was more than 100 µM throughout.
Regarding `O=S1(=O)N(Cc2ccccc2)[C@@H](Cc2ccccc2)[C@H](O)[C@H](O)[C@H](Cc2ccccc2)N1Cc1ccccc1`, the GI50 is 3.21 µM with DU-145 prostate; 2.97 µM with HL-60(TB) leukemia; 3.57 µM in the experiment on IGROV1 ovarian; 3.04 µM in the experiment with NCI-H226 lung; 3.4 µM in the experiment with NCI/ADR-RES ovarian; 4.49 µM in the experiment on RPMI-8226 leukemia. Further, the GI50 with SK-OV-3 ovarian is 4.15 µM; with T-47D breast it was 3.95 µM; with UO-31 renal it was 2.73 µM. Further, the TGI in the experiment with DU-145 prostate is 7.55 µM; with HL-60(TB) leukemia it was 8.72 µM; in the experiment with IGROV1 ovarian, 7.24 µM; in the experiment on NCI-H226 lung, 6.17 µM; in the experiment with NCI/ADR-RES ovarian it was 8.58 µM; with RPMI-8226 leukemia it was more than 20 µM. The TGI amounted to 10.6 µM with SK-OV-3 ovarian, 10.2 µM in the experiment on T-47D breast and 5.96 µM in the experiment with UO-31 renal.
As to `COc1ccc(NC(=O)/C=C(C)/C=C/C=C(C)/C=C/C2=C(C)CCCC2(C)C)cc1`, the GI50 with DU-145 prostate is 8.2 µM; in the experiment on HL-60(TB) leukemia it was 2.85 µM; in the experiment on NCI-H226 lung it was 2.83 µM; with NCI/ADR-RES ovarian, 13.9 µM; in the experiment with RPMI-8226 leukemia, 2.33 µM; in the experiment on SK-OV-3 ovarian, 17 µM. In addition, the GI50 was 1.98 µM in the experiment on SR leukemia, 3.75 µM in the experiment on T-47D breast and 10.8 µM in the experiment on UO-31 renal. The TGI came out at 20.3 µM in the experiment with DU-145 prostate; 6.01 µM in the experiment with HL-60(TB) leukemia; 6.7 µM with NCI-H226 lung; 31.1 µM in the experiment on NCI/ADR-RES ovarian; 7.76 µM in the experiment on RPMI-8226 leukemia; 30.7 µM in the experiment on SK-OV-3 ovarian. Moreover, the figures for the TGI in the experiment on SR leukemia, in the experiment on T-47D breast and with UO-31 renal were 11.9 µM, 16.1 µM and 25.4 µM, respectively.
In the case of `Oc1c(Cl)cc(Cl)c2ccc(Cn3cc(-c4cc(C(F)(F)F)cc(C(F)(F)F)c4)nn3)nc12`, the GI50 was 1.57 µM with DU-145 prostate; 1.5 µM with IGROV1 ovarian; 4.93 µM in the experiment with NCI-H226 lung; 22.1 µM with NCI/ADR-RES ovarian; 1.32 µM with RPMI-8226 leukemia; 16.4 µM with SK-OV-3 ovarian. For the same compound, the results for the GI50 in the experiment on SR leukemia, with T-47D breast and with UO-31 renal were 0.714 µM, 1.67 µM and 1.6 µM, respectively. Moreover, the TGI was 3.06 µM with DU-145 prostate; 3.47 µM with IGROV1 ovarian; 21 µM in the experiment on NCI-H226 lung; 71.6 µM in the experiment with NCI/ADR-RES ovarian; 4.74 µM in the experiment on RPMI-8226 leukemia; 30.1 µM in the experiment on SK-OV-3 ovarian. Further, the TGI in the experiment with SR leukemia was 5.68 µM; in the experiment on T-47D breast, 5.55 µM; in the experiment on UO-31 renal, 5.51 µM.
On to `CCCCCCCC(=O)OCCCC1[C@]2(C)CC[C@@]3(C)C([C@H](C)CCC=C(C)C)CC[C@]3(C)C2CC[C@]12OC2(C)C` (stereo partly specified), for which the GI50 in the experiment with DU-145 prostate is 38.1 µM; in the experiment on HL-60(TB) leukemia, 28.5 µM; with IGROV1 ovarian, 34.8 µM; in the experiment with NCI-H226 lung it was 22.8 µM; with NCI/ADR-RES ovarian, 35 µM; in the experiment with RPMI-8226 leukemia it was 36.4 µM. In addition, the GI50 in the experiment on SR leukemia was 22.6 µM; in the experiment on T-47D breast it was 35.7 µM; in the experiment on UO-31 renal, 31.9 µM. For the same compound, the TGI is more than 100 µM in the experiment on DU-145 prostate; 67.4 µM in the experiment on HL-60(TB) leukemia; more than 100 µM with IGROV1 ovarian; 92.3 µM in the experiment with NCI-H226 lung; more than 100 µM in the experiment with NCI/ADR-RES ovarian; more than 100 µM in the experiment with RPMI-8226 leukemia. The TGI in the experiment with SR leukemia is 45.7 µM; in the experiment with T-47D breast it was more than 100 µM; with UO-31 renal it was more than 100 µM.
As for `CCn1c(-c2cc3c([nH]c4ccccc43)c(-c3cccc(O)c3)n2)n[nH]c1=S`, the GI50 is 4.87 µM in the experiment with DU-145 prostate; 4.23 µM in the experiment with IGROV1 ovarian; 6.45 µM in the experiment on NCI-H226 lung; 3.15 µM in the experiment on NCI/ADR-RES ovarian; 2.5 µM in the experiment on RPMI-8226 leukemia; 4.32 µM with SK-OV-3 ovarian. In addition, the GI50 was 1.67 µM with SR leukemia, 2.36 µM with T-47D breast and 2.24 µM in the experiment with UO-31 renal. Also, the TGI in the experiment on DU-145 prostate is 16.7 µM; in the experiment on IGROV1 ovarian, 35.5 µM; in the experiment with NCI-H226 lung, 55.8 µM; in the experiment on NCI/ADR-RES ovarian, 42 µM; in the experiment on RPMI-8226 leukemia it was 8.78 µM; in the experiment with SK-OV-3 ovarian, 17.5 µM. For the same compound, the TGI in the experiment on SR leukemia was 6.97 µM; in the experiment with T-47D breast it was 9.12 µM; in the experiment with UO-31 renal it was 11.8 µM.
Consider `NS(=O)(=O)c1ccc(N2N=C3c4ccccc4CC3C2c2cccs2)cc1` (stereo unspecified), for which the GI50 with DU-145 prostate is 14.5 µM; in the experiment on IGROV1 ovarian it was 30 µM; in the experiment on NCI/ADR-RES ovarian, 17.1 µM; in the experiment on RPMI-8226 leukemia, 32.3 µM; with SK-OV-3 ovarian, 48 µM; with T-47D breast it was 66.9 µM. Moreover, the GI50 in the experiment on UO-31 renal was 39.4 µM. Further, the TGI in the experiment on DU-145 prostate was 37.7 µM; with IGROV1 ovarian, 89.9 µM; with NCI/ADR-RES ovarian, 43.4 µM; with RPMI-8226 leukemia it was more than 100 µM; with SK-OV-3 ovarian, more than 100 µM; in the experiment on T-47D breast, more than 100 µM. Also, in the experiment with UO-31 renal, the TGI is more than 100 µM.
